Patent publication US20250115583A1, “BICYCLIC INDAZOLE GLUCOCORTICOID RECEPTOR ANTAGONISTS” (Corcept Therapeutics Incorporated, priority 2021, published 2025)

Biological target: glucocorticoid receptor (Homo sapiens (Human), UniProt P04150)
Test: HepG2 TAT assay: inhibition of dexamethasone-induced tyrosine aminotransferase (TAT) activity
Format: cell-based
Details: HepG2 cells, challenge of 100 nM dexamethasone, 18-24 hr; IC50 converted to Ki by Cheng and Prusoff equation
How it was run: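 Cells lysed 15 min at 4 °C; TAT enzyme reaction 2 h at 37 °C, stopped with KOH, 30 min further at 37 °C. Inhibition fitted to 4-parameter logistic.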

Sequence of glucocorticoid receptor (P04150 whole entry): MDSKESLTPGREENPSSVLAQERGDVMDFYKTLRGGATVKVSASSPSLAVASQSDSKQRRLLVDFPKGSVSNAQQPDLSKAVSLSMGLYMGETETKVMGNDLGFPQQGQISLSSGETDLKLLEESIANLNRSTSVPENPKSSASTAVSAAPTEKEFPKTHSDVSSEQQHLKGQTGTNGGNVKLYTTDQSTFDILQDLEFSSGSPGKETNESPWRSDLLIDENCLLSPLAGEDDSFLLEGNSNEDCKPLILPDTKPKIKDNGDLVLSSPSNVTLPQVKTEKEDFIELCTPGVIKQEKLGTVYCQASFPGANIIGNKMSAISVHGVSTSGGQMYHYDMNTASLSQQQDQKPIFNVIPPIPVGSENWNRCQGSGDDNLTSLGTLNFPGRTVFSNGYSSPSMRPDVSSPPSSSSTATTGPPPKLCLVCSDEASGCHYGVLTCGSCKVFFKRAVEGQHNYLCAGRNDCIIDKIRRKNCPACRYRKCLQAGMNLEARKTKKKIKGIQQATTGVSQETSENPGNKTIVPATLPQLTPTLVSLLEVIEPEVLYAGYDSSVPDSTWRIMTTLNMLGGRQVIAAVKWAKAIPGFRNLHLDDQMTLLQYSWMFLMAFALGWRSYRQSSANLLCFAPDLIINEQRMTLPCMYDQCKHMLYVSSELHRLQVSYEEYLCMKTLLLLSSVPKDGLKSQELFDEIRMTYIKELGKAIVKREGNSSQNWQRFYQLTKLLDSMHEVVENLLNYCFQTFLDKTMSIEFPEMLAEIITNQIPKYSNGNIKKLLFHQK

| Ki | SMILES |
| --- | --- |
| 48 nM | Cc1cc2c(cnn2-c2ccc(F)cc2)cc1[C@@]12CN(Cc3ccccn3)C[C@@H]1[C@H]2c1ccccc1 (stereo in doubt) [Example 179, 1-(4-fluorophenyl)-6-methyl-5-(6-phenyl-3-(pyridin-2-ylmethyl)-3-azabicyclo[3.1.0]hexan-1-yl)-1H-indazole] |
| 860 nM | Cc1cc2c(cnn2-c2ccc(F)cc2)cc1[C@@]12CN(C(=O)c3ccccc3)C[C@@H]1[C@H]2Cc1ccccc1 (stereo in doubt) [Example 184, (6-benzyl-1-(1-(4-fluorophenyl)-6-methyl-1H-indazol-5-yl)-3-azabicyclo[3.1.0]hexan-3-yl)(phenyl)methanone] |
| 72 nM | Cc1cc2c(cnn2-c2ccc(F)cc2)cc1C12CC(Oc3ccccc3)CC1CN(S(C)(=O)=O)C2 (centres unmarked) [Example 36, 1-(4-fluorophenyl)-6-methyl-5-(2-(methylsulfonyl)-5-phenoxyhexahydrocyclopenta[c]pyrrol-3a(1H)-yl)-1H-indazole] |
| 110 nM | Cc1cc2c(cnn2-c2ccc(F)cc2)cc1C12CN(S(=O)(=O)c3cnn(C)n3)CC1C2COc1ccc(Cl)cc1 (single isomer, unassigned) [Example 53, 5-(6-((4-chlorophenoxy)methyl)-3-((2-methyl-2H-1,2,3-triazol-4-yl)sulfonyl)-3-azabicyclo[3.1.0]hexan-1-yl)-1-(4-fluorophenyl)-6-methyl-1H-indazole] |
| 120 nM | CNC(=O)N1C[C@@H]2[C@@H](c3ccccc3)[C@]2(c2cc3cnn(-c4ccc(F)cc4)c3cc2C)C1 (single isomer, unassigned) [Example 124, 1-(1-(4-fluorophenyl)-6-methyl-1H-indazol-5-yl)-N-methyl-6-phenyl-3-azabicyclo[3.1.0]hexane-3-carboxamide] |
| 24 nM | Cc1cc2c(cnn2-c2ccc(F)cc2)cc1[C@@]12CN(C(=O)c3ccccc3S(C)(=O)=O)C[C@@H]1[C@H]2c1ccccc1 (stereo in doubt) [Example 159, (1-(1-(4-fluorophenyl)-6-methyl-1H-indazol-5-yl)-6-phenyl-3-azabicyclo[3.1.0]hexan-3-yl)(2-(methylsulfonyl)phenyl)methanone] |
| 45 nM | Cc1cnc(C(=O)N2C[C@@H]3[C@@H](c4ccccc4)[C@]3(c3cc4cnn(-c5ccc(F)cc5)c4cc3C)C2)s1 (stereo in doubt) [Example 176, (1-(1-(4-fluorophenyl)-6-methyl-1H-indazol-5-yl)-6-phenyl-3-azabicyclo[3.1.0]hexan-3-yl)(5-methylthiazol-2-yl)methanone] |
| 170 nM | CCOC1(c2ccccc2)CC2CN(S(=O)(=O)c3cnn(C)c3)CC2(c2cc3cnn(-c4ccc(F)cc4)c3cc2C)C1 (centres unmarked) [Example 12] |
| 25 nM | Cc1cc2c(cnn2-c2ccc(F)cc2)cc1[C@@]12CN(C(=O)c3cccc(C(F)F)c3)C[C@@H]1[C@H]2c1ccccc1 (stereo in doubt) [Example 143, (3-(difluoromethyl)phenyl)(1-(1-(4-fluorophenyl)-6-methyl-1H-indazol-5-yl)-6-phenyl-3-azabicyclo[3.1.0]hexan-3-yl)methanone] |
| 12 nM | Cc1cc2c(cnn2-c2ccc(F)cc2)cc1[C@@]12CN(C(=O)c3nccs3)C[C@@H]1[C@H]2c1ccccc1 (stereo in doubt) [Example 158, (1-(1-(4-fluorophenyl)-6-methyl-1H-indazol-5-yl)-6-phenyl-3-azabicyclo[3.1.0]hexan-3-yl)(thiazol-2-yl)methanone] |
| 630 nM | Cc1cc2c(cnn2-c2ccc(F)cc2)cc1[C@]12CN(C(=O)c3ccccc3)C[C@H]1[C@H]2c1ccccn1 (stereo in doubt) [Example 186, (1-(1-(4-fluorophenyl)-6-methyl-1H-indazol-5-yl)-6-(pyridin-2-yl)-3-azabicyclo[3.1.0]hexan-3-yl)(phenyl)methanone] |
| 19 nM | Cc1cc2c(cnn2-c2ccc(F)cc2)cc1[C@@]12CN(C(=O)c3ccc(C#N)cn3)C[C@@H]1[C@H]2c1ccccc1 (single isomer, unassigned) [Example 163, 6-(1-(1-(4-fluorophenyl)-6-methyl-1H-indazol-5-yl)-6-phenyl-3-azabicyclo[3.1.0]hexane-3-carbonyl)nicotinonitrile] |
| 19 nM | Cc1cc2c(cnn2-c2ccc(F)cc2)cc1[C@@]12CN(C(=O)c3ncccc3C#N)C[C@@H]1[C@H]2c1ccccc1 (single isomer, unassigned) [Example 155, 2-(1-(1-(4-fluorophenyl)-6-methyl-1H-indazol-5-yl)-6-phenyl-3-azabicyclo[3.1.0]hexane-3-carbonyl)nicotinonitrile] |
| 20 nM | Cc1cc2c(cnn2-c2ccc(F)cc2)cc1[C@@]12CN(C(=O)c3ncccc3F)C[C@@H]1[C@H]2c1ccccc1 (stereo in doubt) [Example 156, (1-(1-(4-fluorophenyl)-6-methyl-1H-indazol-5-yl)-6-phenyl-3-azabicyclo[3.1.0]hexan-3-yl)(3-fluoropyridin-2-yl)methanone] |
| 16 nM | Cc1cc2c(cnn2-c2ccc(F)cc2)cc1[C@@]12CN(C(=O)c3ccn(C)n3)C[C@@H]1[C@H]2c1ccccc1 (stereo in doubt) [Example 154, (1-(1-(4-fluorophenyl)-6-methyl-1H-indazol-5-yl)-6-phenyl-3-azabicyclo[3.1.0]hexan-3-yl)(1-methyl-1H-pyrazol-3-yl)methanone] |
| 47 nM | Cc1cc2c(cnn2-c2ccc(F)cc2)cc1[C@@]12CN(C(=O)c3cccc(C(C)C)n3)C[C@@H]1[C@H]2c1ccccc1 (stereo in doubt) [Example 166, (1-(1-(4-fluorophenyl)-6-methyl-1H-indazol-5-yl)-6-phenyl-3-azabicyclo[3.1.0]hexan-3-yl)(6-isopropylpyridin-2-yl)methanone] |
| 20 nM | Cc1cc2c(cnn2-c2ccc(F)cc2)cc1[C@@]12CN(C(=O)c3ccc(F)cn3)C[C@@H]1[C@H]2c1ccccc1 (single isomer, unassigned) [Example 152, (1-(1-(4-fluorophenyl)-6-methyl-1H-indazol-5-yl)-6-phenyl-3-azabicyclo[3.1.0]hexan-3-yl)(5-fluoropyridin-2-yl)methanone] |
| 260 nM | Cc1cc2c(cnn2-c2ccc(F)cc2)cc1C12CC(Oc3cccnc3)CC1CN(S(C)(=O)=O)C2 (centres unmarked) [Example 42] |
| 9.2 nM | Cc1cc2c(cnn2-c2ccc(F)cc2)cc1[C@@]12CN(C(=O)c3ncccc3C(F)(F)F)C[C@@H]1[C@H]2c1ccccc1 (single isomer, unassigned) [Example 148, (1-(1-(4-fluorophenyl)-6-methyl-1H-indazol-5-yl)-6-phenyl-3-azabicyclo[3.1.0]hexan-3-yl)(3-(trifluoromethyl)pyridin-2-yl)methanone] |
| 29 nM | Cc1cc2c(cnn2-c2ccc(F)cc2)cc1[C@@]12CN(C(=O)OC3CCOCC3)C[C@@H]1[C@H]2c1ccccc1 (single isomer, unassigned) [Example 125, tetrahydro-2H-pyran-4-yl 1-(1-(4-fluorophenyl)-6-methyl-1H-indazol-5-yl)-6-phenyl-3-azabicyclo[3.1.0]hexane-3-carboxylate] |

| SMILES | Ki |
| --- | --- |
| Cc1cc2c(cnn2-c2ccc(F)cc2)cc1[C@]12CN(S(=O)(=O)C3CCOCC3)C[C@H]1[C@@H]2c1ccccc1 [Example 88] | 47 nM |
| Cc1cc2c(cnn2-c2ccc(F)cc2)cc1[C@]12CN(S(=O)(=O)N3CCOCC3)C[C@H]1[C@@H]2c1ccccc1 [Example 87] | 20 nM |
| Cc1cc2c(cnn2-c2ccc(F)cc2)cc1[C@@]12CN(S(=O)(=O)CC3CCOCC3)C[C@@H]1[C@H]2c1ccccc1 [Example 107] | 32 nM |
| Cc1cc2c(cnn2-c2ccc(F)cc2)cc1[C@@]12CN(S(=O)(=O)NCC(C)C)C[C@@H]1[C@H]2c1ccccc1 [Example 100] | 82 nM |
| CCCn1ncc(S(=O)(=O)N2C[C@H]3[C@H](c4ccccc4)[C@@]3(c3cc4cnn(-c5ccc(F)cc5)c4cc3C)C2)n1 [Example 75] | 25 nM |
| CO[C@@]1(c2ccccc2)C[C@H]2CN(S(=O)(=O)C3CC3)C[C@@]2(c2cc3cnn(-c4ccc(F)cc4)c3cc2C)C1 [Example 24] | 32 nM |
| CCS(=O)(=O)N1C[C@@H]2[C@@H](c3ccccc3)[C@]2(c2cc3cnn(-c4ccc(F)cc4)c3cc2C)C1 [Example 94] | 31 nM |
| Cc1cc2c(cnn2-c2ccc(F)cc2)cc1[C@@]12CN(S(=O)(=O)C(C)C)C[C@@H]1[C@H]2c1ccccc1 [Example 101] | 41 nM |
| Cc1cc2c(cnn2-c2ccc(F)cc2)cc1[C@]12CN(S(=O)(=O)CC3CC3)C[C@H]1[C@@H]2c1ccccc1 [Example 93] | 29 nM |
| Cc1cc2c(cnn2-c2ccc(F)cc2)cc1[C@@]12CN(S(=O)(=O)c3cnn(C)n3)C[C@@H]1[C@H]2C(=O)NCC(C)C [Example 66] | 150 nM |
| Cc1cc2c(cnn2-c2ccc(F)cc2)cc1[C@@]12CN(S(=O)(=O)c3cnn(C)n3)C[C@@H]1[C@H]2c1ccccc1 [Example 70] | 24 nM |
| Cc1cc2c(cnn2-c2ccc(F)cc2)cc1[C@@]12CN(S(=O)(=O)c3ccccc3)C[C@@H]1[C@H]2c1ccccc1 [Example 89] | 17 nM |
| Cc1cc2c(cnn2-c2ccc(F)cc2)cc1C12CN(C(=O)OC(C)(C)C)CC1CC(O)(c1ccccc1)C2 (centres unmarked) [Example 17, tert-butyl 3a-(1-(4-fluorophenyl)-6-methyl-1H-indazol-5-yl)-5-hydroxy-5-phenylhexahydrocyclopenta[c]pyrrole-2(1H)-carboxylate] | 42 nM |
| Cc1cc2c(cnn2-c2ccc(F)cc2)cc1[C@]12CN(C(=O)c3cnnn3C)C[C@H]1[C@@H]2c1ccccc1 [Example 144, (1-(1-(4-fluorophenyl)-6-methyl-1H-indazol-5-yl)-6-phenyl-3-azabicyclo[3.1.0]hexan-3-yl)(1-methyl-1H-l,2,3-triazol-5-yl)methanone] | 120 nM |
| CCCn1cc(S(=O)(=O)N2C[C@@H]3C[C@](OC)(c4ccccc4)C[C@]3(c3cc4cnn(-c5ccc(F)cc5)c4cc3C)C2)cn1 [Example 22] | 32 nM |
